Data from ChEMBL document CHEMBL1152855, “Regioselective synthesis of dispiro[1H-indene-2,3'-pyrrolidine-2',3''-[3H]indole]-1,2''(1''H)-diones of potential anti-tumor properties” (2009).

Experiments:
Format in all cases: functional
MCF7 = test: Growth inhibition of human MCF7 cells at 10 uM after 48 hrs by sulforhodamine B assay; conditions: MCF7, 48 h, values are per cent of control
OVCAR-5 = test: Growth inhibition of human OVCAR5 cells at 10 uM after 48 hrs by sulforhodamine B assay; conditions: OVCAR-5, 48 h, values are per cent of control
NCI/ADR-RES = test: Growth inhibition of human NCI/ADR-RES cells at 10 uM after 48 hrs by sulforhodamine B assay; conditions: values are per cent of control
CAKI-1 = test: Growth inhibition of human Caki1 cells at 10 uM after 48 hrs by sulforhodamine B assay; conditions: CAKI-1, 48 h, values are per cent of control
SK-OV-3 = test: Growth inhibition of human SKOV3 cells at 10 uM after 48 hrs by sulforhodamine B assay; conditions: SK-OV-3, 48 h, values are per cent of control
SK-MEL-5 = test: Growth inhibition of human SK-MEL-5 cells at 10 uM after 48 hrs by sulforhodamine B assay; conditions: SK-MEL-5, 48 h, values are per cent of control
LOX IMVI = test: Growth inhibition of human LOXIMVI cells at 10 uM after 48 hrs by sulforhodamine B assay; conditions: values are per cent of control
NCI-H460 = test: Growth inhibition of human NCI-H460 cells at 10 uM after 48 hrs by sulforhodamine B assay; conditions: NCI-H460, 48 h, values are per cent of control
NCI-H522 = test: Growth inhibition of human NCI-H522 cells at 10 uM after 48 hrs by sulforhodamine B assay; conditions: NCI-H522, 48 h, values are per cent of control
UACC-257 = test: Growth inhibition of human UACC257 cells at 10 uM after 48 hrs by sulforhodamine B assay; conditions: UACC-257, 48 h, values are per cent of control
MDA-MB-231 = test: Growth inhibition of human MDA-MB-231 cells at 10 uM after 48 hrs by sulforhodamine B assay; conditions: MDA-MB-231, 48 h, values are per cent of control
SF-539 = test: Growth inhibition of human SF539 cells at 10 uM after 48 hrs by sulforhodamine B assay; conditions: SF-539, 48 h, values are per cent of control
UO-31 = test: Growth inhibition of human UO31 cells at 10 uM after 48 hrs by sulforhodamine B assay; conditions: UO-31, 48 h, values are per cent of control
786-0 = test: Growth inhibition of human 786-0 cells at 10 uM after 48 hrs by sulforhodamine B assay; conditions: 786-0, 48 h, values are per cent of control
SR = test: Growth inhibition of human SR cells at 10 uM after 48 hrs by sulforhodamine B assay; conditions: values are per cent of control
HOP-92 = test: Growth inhibition of human HOP92 cells at 10 uM after 48 hrs by sulforhodamine B assay; conditions: HOP-92, 48 h, read-out: GI
SK-MEL-28 = test: Growth inhibition of human SK-MEL-28 cells at 10 uM after 48 hrs by sulforhodamine B assay; conditions: SK-MEL-28, 48 h, values are per cent of control
MOLT-4 = test: Growth inhibition of human MOLT4 cells at 10 uM after 48 hrs by sulforhodamine B assay; conditions: MOLT-4, 48 h, values are per cent of control
HT-29 = test: Growth inhibition of human HT-29 cells at 10 uM after 48 hrs by sulforhodamine B assay; conditions: HT-29, 48 h, values are per cent of control
NCI-H226 = test: Growth inhibition of human NCI-H226 cells at 10 uM after 48 hrs by sulforhodamine B assay; conditions: NCI-H226, 48 h, values are per cent of control
U-251 = test: Growth inhibition of human U251 cells at 10 uM after 48 hrs by sulforhodamine B assay; conditions: U-251, 48 h, values are per cent of control
OVCAR-4 = test: Growth inhibition of human OVCAR4 cells at 10 uM after 48 hrs by sulforhodamine B assay; conditions: OVCAR-4, 48 h, values are per cent of control
DU-145 = test: Growth inhibition of human DU145 cells at 10 uM after 48 hrs by sulforhodamine B assay; conditions: DU-145, 48 h, values are per cent of control
HOP-62 = test: Growth inhibition of human HOP62 cells at 10 uM after 48 hrs by sulforhodamine B assay; conditions: HOP-62, 48 h, values are per cent of control
Rattus norvegicus [1] = test: Antiinflammatory activity against carrageenan-induced paw edema in Wister albino rat assessed as inhibition of edema at 50 mg/kg, ip administered 1 hr prior to carrageenan challenge measured after 3 hrs relative to control; conditions: route intraperitoneal
M14 = test: Growth inhibition of human M14 cells at 10 uM after 48 hrs by sulforhodamine B assay; conditions: M14, 48 h, values are per cent of control
SF-268 = test: Growth inhibition of human SF268 cells at 10 uM after 48 hrs by sulforhodamine B assay; conditions: SF-268, 48 h, values are per cent of control
NCI-H23 = test: Growth inhibition of human NCI-H23 cells at 10 uM after 48 hrs by sulforhodamine B assay; conditions: NCI-H23, 48 h, values are per cent of control
Rattus norvegicus [2] = test: Antiinflammatory activity against carrageenan-induced paw edema in Wister albino rat assessed as inhibition of edema at 50 mg/kg, ip administered 1 hr prior to carrageenan challenge measured after 2 hrs relative to control; conditions: route intraperitoneal
NCI-H322M = test: Growth inhibition of human NCI-H322M cells at 10 uM after 48 hrs by sulforhodamine B assay; conditions: values are per cent of control
PC-3 = test: Growth inhibition of human PC3 cells at 10 uM after 48 hrs by sulforhodamine B assay; conditions: PC-3, 48 h, values are per cent of control
SN12C = test: Growth inhibition of human SN12C cells at 10 uM after 48 hrs by sulforhodamine B assay; conditions: values are per cent of control
K562 = test: Growth inhibition of human K562 cells at 10 uM after 48 hrs by sulforhodamine B assay; conditions: K562, 48 h, values are per cent of control
CCRF-CEM = test: Growth inhibition of human CCRF-CEM cells at 10 uM after 48 hrs by sulforhodamine B assay; conditions: values are per cent of control
EKVX = test: Growth inhibition of human EKVX cells at 10 uM after 48 hrs by sulforhodamine B assay; conditions: values are per cent of control
HCT-15 = test: Growth inhibition of human HCT15 cells at 10 uM after 48 hrs by sulforhodamine B assay; conditions: HCT-15, 48 h, values are per cent of control
T47D = test: Growth inhibition of human T47D cells at 10 uM after 48 hrs by sulforhodamine B assay; conditions: values are per cent of control
UACC-62 = test: Growth inhibition of human UACC62 cells at 10 uM after 48 hrs by sulforhodamine B assay; conditions: UACC-62, 48 h, values are per cent of control
SK-MEL-2 = test: Growth inhibition of human SK-MEL-2 cells at 10 uM after 48 hrs by sulforhodamine B assay; conditions: SK-MEL-2, 48 h, read-out: GI

[3H]N1C(=O)[C@@]2(c3ccccc31)N(C)C[C@@H](c1ccc(OC)cc1)[C@@]21Cc2ccccc2C1=O
growth, % of control at 10 µM (MCF7): 120% | growth, % of control at 10 µM (OVCAR-5): 106% | growth, % of control at 10 µM (NCI/ADR-RES): 89.4% | growth, % of control at 10 µM (CAKI-1): 85.7% | growth, % of control at 10 µM (SK-OV-3): 97.3% | growth, % of control at 10 µM (SK-MEL-5): 101% | growth, % of control at 10 µM (LOX IMVI): 80.5% | growth, % of control at 10 µM (NCI-H460): 107% | growth, % of control at 10 µM (NCI-H522): 91% | growth, % of control at 10 µM (UACC-257): 99.3% | growth, % of control at 10 µM (MDA-MB-231): 74.4% | growth, % of control at 10 µM (SF-539): 101% | growth, % of control at 10 µM (UO-31): 92.5% | growth, % of control at 10 µM (786-0): 102% | growth, % of control at 10 µM (SR): 140% | inhibition of growth at 10 µM (HOP-92): 62.5% | growth, % of control at 10 µM (SK-MEL-28): 108% | growth, % of control at 10 µM (MOLT-4): 79.8% | growth, % of control at 10 µM (HT-29): 138% | growth, % of control at 10 µM (NCI-H226): 85.9% | growth, % of control at 10 µM (U-251): 96.7% | growth, % of control at 10 µM (OVCAR-4): 118% | growth, % of control at 10 µM (DU-145): 110% | growth, % of control at 10 µM (HOP-62): 100% | inhibition in vivo at 50 mg/kg (Rattus norvegicus [1]): 20.5% | growth, % of control at 10 µM (M14): 97.5% | growth, % of control at 10 µM (SF-268): 113% | growth, % of control at 10 µM (NCI-H23): 89.3% | inhibition in vivo at 50 mg/kg (Rattus norvegicus [2]): 17.5% | growth, % of control at 10 µM (NCI-H322M): 111% | growth, % of control at 10 µM (PC-3): 66% | growth, % of control at 10 µM (SN12C): 105% | growth, % of control at 10 µM (K562): 93.9% | growth, % of control at 10 µM (CCRF-CEM): 87.3% | growth, % of control at 10 µM (EKVX): 92.4% | growth, % of control at 10 µM (HCT-15): 107% | growth, % of control at 10 µM (T47D): 97.5% | growth, % of control at 10 µM (UACC-62): 71.8% | inhibition of growth at 10 µM (SK-MEL-2): 8.7%
